Values of other authors as cited in US8715726B2 (Eurofarma Laboratories S.A., priority 2007, dated 2014).

COc1cccc(C2(O)CCCCC2CN(C)C)c1 (stereo not drawn) [Tramadol, 2-((dimethylamino)methyl)-1-(m-methoxyphenyl)-cyclohexanol]
metabolism (in vivo): extensively metabolised in the liver | dose excreted in the form of metabolites (oral administration): 60% | dose excreted in the urine not having been metabolised (oral administration): Approximately 30%
